Patent US20230227492A1 (priority 2020, published 2023)
Like-named read-outs stand apart in the source and are kept apart here.

Experiments:
[1] = biological target: T1, rat AR ligand-binding domain tagged with His and GST [AR-LBD (His-GST)] (Rattus norvegicus, UniProt P15207); assay: AR fluorescence polarization (FP) binding assay; conditions: Fluormone AL Green
T1 construct: purchased Life Technologies (Carlsbad, Calif.)
T1 sequence (P15207 651-882 limits assumed): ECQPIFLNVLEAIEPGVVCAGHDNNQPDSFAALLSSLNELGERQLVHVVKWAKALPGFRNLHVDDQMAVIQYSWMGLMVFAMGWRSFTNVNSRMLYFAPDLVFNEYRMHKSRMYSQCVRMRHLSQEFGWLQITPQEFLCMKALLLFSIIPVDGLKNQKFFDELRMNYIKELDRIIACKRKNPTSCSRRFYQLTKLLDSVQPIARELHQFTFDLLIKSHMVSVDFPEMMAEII
Description: (§1) Receptor Binding Assay Information—In certain of the following examples, hormone receptor binding assays were used to determine the receptor binding activities of monomeric compound embodiments to androgen (AR), progesterone (PR), estrogen alpha (ERα) or glucocorticoid (GR) receptors. For AR, PR or ERα, the respective receptors are added to novel, tight-binding, selective ligands tagged with a fluorescent molecule, to form a receptor-ligand complex with a high polarization value. This complex is then added to individual monomeric compound embodiments that are contained in well plates. If the monomeric compound binds to the respective receptors, it displaces the fluorescent ligand from the complex, resulting in a low polarization value. In such embodiments, the monomeric compound is characterized as a competitor. […] In such embodiments, the monomeric compound is characterized as a noncompetitor. The shift in polarization value in the presence of the monomeric compound is used to determine the relative affinity of monomeric compound for the receptor.
(§2) For the androgen, progesterone, and estrogen receptor binding assays described herein, the preparation of reagents and test procedures is performed according to the manufacturer's instructions (Life Technologies, Carlsbad, Calif.). The plates are covered to protect the reagents from light and incubated at 20-25° C. for 4-8 hrs.
In this example, AR binding activity and ER binding activity of certain reference compounds and monomeric compound embodiments wherein the R^2 group is not present was assessed (such as to test compound activity after R^2 cleavage). The AR fluorescence polarization (FP) assay was used and provides a sensitive and efficient method for high-throughput screening of potential AR ligands. The kit uses rat AR ligand-binding domain tagged with His and GST [AR-LBD (His-GST)], and a tight-binding, selective fluorescent androgen ligand (Fluormone™ AL Green) in a homogenous mix-and-read assay format. The androgen receptor [AR-LBD (His-GST)] was added to a fluorescent androgen ligand (Fluormone™ AL Green) to form an AR-LBD (His-GST)/Fluormone™ AL Green complex resulting in a high polarization value. This complex was then added to individual compound embodiments in 96-well plates. Competitors displaced the fluorescent Fluormone™ AL Green ligand from the AR-LBD (His-GST)/Fluormone™ AL Green complex, causing the fluorescent ligand to tumble rapidly during its fluorescence lifetime, resulting in a low polarization value. […] The shift in polarization value in the presence of compound embodiments used to determine relative affinity of compound embodiments for AR-LBD (His-GST).

[2] = biological target: T2, full-length, untagged, human estrogen receptors (ERα) (Homo sapiens, UniProt P03372); assay: ERα fluorescence polarization (FP) binding assay
T2 construct: insect cell-expressed, full-length, untagged, human estrogen receptors; purchased Life Technologies (Carlsbad, Calif.); host or cells: insect cells
Description: as §1, §2
For ERα data, the ERα fluorescence polarization (FP) assay was used, which provides a sensitive and efficient method for high-throughput screening of potential ER ligands. The kit uses insect cell-expressed, full-length, untagged, human estrogen receptors and a tight-binding, fluorescent estrogen ligand (Fluormone™ ES2) in a homogenous mix-and-read assay format. ERα was added to a fluorescent estrogen ligand to form an ERα/Fluormone™ ES2 complex. This complex was then added to individual compound embodiments contained in 96-well plates. […] The change in polarization value in the presence of a compound embodiment was used to determine relative affinity of a compound embodiment for ERα.

[3] = biological target: T3, human full-length androgen receptor (Homo sapiens, UniProt P10275); assay: AR Transactivation Assay (MMTV-luciferase, HEC-1-B cells); type: cell-based
T3 sequence (P10275 1-920): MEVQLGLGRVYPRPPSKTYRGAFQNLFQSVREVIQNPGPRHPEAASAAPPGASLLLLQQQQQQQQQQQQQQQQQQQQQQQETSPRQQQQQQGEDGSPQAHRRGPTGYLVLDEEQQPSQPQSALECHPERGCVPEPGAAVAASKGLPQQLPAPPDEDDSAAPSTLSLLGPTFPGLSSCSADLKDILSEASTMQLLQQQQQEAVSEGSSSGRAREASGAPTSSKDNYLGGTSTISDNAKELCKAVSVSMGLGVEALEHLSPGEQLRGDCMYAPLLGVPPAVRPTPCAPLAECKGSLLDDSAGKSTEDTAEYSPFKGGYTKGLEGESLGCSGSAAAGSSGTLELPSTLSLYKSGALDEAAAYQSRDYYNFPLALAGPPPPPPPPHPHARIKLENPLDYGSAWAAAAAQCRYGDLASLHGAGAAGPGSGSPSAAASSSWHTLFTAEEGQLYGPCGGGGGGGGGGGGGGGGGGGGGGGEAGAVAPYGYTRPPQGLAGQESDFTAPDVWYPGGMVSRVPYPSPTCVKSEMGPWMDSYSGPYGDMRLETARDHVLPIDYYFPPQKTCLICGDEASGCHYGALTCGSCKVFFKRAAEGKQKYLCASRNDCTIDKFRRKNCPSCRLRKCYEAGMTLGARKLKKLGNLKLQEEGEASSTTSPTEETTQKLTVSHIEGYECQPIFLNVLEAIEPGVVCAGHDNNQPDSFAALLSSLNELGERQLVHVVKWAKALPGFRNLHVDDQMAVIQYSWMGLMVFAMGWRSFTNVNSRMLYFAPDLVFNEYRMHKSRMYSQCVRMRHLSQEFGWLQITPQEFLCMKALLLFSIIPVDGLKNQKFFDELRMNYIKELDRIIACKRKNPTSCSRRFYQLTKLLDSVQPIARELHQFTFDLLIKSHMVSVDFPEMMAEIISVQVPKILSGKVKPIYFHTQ

[4] = biological target: T4, human PR ligand-binding domain tagged with GST [PR-LBD (GST)] (Homo sapiens, UniProt P06401); assay: PR fluorescence polarization (FP) binding assay; conditions: Fluormone PL Green
T4 construct: purchased Life Technologies (Carlsbad, Calif.)
T4 sequence (P06401 679-913 limits assumed): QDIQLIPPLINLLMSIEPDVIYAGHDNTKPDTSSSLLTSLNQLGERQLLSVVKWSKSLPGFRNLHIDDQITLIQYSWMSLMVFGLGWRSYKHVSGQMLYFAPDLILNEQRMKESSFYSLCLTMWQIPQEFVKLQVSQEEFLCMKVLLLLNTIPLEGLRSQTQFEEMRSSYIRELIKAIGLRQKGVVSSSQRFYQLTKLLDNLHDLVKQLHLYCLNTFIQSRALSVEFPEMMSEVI
Description: as §1
as §2, with “hrs. The fluorescence polarization of the samples is measured with 485 nm excitation and 530 nm emission interference filters.” for “hrs.”
In this example, PR binding activity was assessed using the PR fluorescence polarization (FP) assay, which provides a sensitive and efficient method for high-throughput screening of potential PR ligands. The kit uses human PR ligand-binding domain tagged with GST [PR-LBD (GST)], and a tight-binding, selective fluorescent progesterone ligand (Fluormone™ PL Green) in a homogenous mix-and-read assay format. Progesterone receptor [PR-LBD (GST)] was added to a fluorescent progesterone ligand (Fluormone™ PL Green) to form a PR-LBD (GST)/Fluormone™ PL Green complex resulting in a high polarization value. This complex was then added to individual compound embodiments in 96-well plates. Competitors displaced the fluorescent Fluormone™ PL Green ligand from the PR-LBD (GST)/Fluormone™ PL Green complex, causing the fluorescent ligand to tumble rapidly during its fluorescence lifetime, resulting in a low polarization value. […] The shift in polarization value in the presence of compound embodiments was used to determine relative affinity of compound embodiments for PR-LBD (GST). The fluorescence polarization of the samples was measured with 485 nm excitation and 530 nm emission interference filters. Results for monomeric compound embodiments wherein the R^2 groups is not present (such as to test compound activity after R^2 cleavage) are provided in Table 4.

[5] = human, plasma
castrated weanling rats = conditions: rat, in vivo
[6] = tested on: castrated Sprague-Dawley male rats; assay: Hershberger assay, ventral prostate weights (7α-methyl testosterone); type: in vivo, rat
[7] = biological target: T5, recombinant human aromatase (Homo sapiens, UniProt P11511); assay: Aromatization by recombinant human aromatase (CYP19+P450 reductase Supersomes); conditions: 10 μM, 37° C.
T5 sequence (P11511 1-503): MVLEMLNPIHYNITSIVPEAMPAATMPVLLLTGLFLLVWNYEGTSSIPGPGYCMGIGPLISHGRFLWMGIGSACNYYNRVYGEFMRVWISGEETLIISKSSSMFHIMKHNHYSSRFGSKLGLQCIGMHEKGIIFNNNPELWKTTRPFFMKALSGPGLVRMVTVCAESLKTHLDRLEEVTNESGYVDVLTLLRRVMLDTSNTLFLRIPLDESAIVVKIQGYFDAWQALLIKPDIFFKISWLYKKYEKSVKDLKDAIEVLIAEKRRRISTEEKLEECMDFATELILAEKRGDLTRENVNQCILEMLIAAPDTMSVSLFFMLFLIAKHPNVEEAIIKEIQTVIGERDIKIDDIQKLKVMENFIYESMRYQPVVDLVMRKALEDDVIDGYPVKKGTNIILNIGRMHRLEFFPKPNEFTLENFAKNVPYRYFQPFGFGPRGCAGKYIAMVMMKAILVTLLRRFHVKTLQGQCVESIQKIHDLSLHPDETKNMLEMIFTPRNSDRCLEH

[8] = fluorescence polarization, Fluormone ES2, read-out: IC50 (nM) ERα

T2 sequence (P03372 whole entry): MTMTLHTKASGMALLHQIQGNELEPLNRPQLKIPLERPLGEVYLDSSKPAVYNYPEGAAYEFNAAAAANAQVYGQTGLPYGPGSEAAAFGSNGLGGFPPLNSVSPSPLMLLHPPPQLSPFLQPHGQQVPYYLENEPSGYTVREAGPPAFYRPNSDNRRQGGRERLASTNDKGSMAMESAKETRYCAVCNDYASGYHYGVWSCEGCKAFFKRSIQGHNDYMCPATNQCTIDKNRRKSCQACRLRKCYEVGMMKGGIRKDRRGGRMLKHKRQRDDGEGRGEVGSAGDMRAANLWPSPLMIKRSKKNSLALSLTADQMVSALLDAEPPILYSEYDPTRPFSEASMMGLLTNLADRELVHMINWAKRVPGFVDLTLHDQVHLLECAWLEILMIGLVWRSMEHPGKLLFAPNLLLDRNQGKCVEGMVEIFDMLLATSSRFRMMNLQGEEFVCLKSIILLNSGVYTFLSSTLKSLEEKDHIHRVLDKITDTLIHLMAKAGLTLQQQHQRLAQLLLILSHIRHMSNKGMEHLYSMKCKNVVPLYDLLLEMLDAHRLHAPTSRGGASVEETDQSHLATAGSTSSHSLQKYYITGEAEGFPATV

Row | Structure (SMILES) | IC50 (nM) AR [1] [nM] | IC50 [2, 8] [nM] | IC50 ([4]; read-out: IC50 (nM) PR binding) [nM] | % remaining at 15 min [7] [%] | % remaining at 30 min [7] [%] | % remaining at 60 min [7] [%] | also measured
1 | CC1Cc2cc(O)ccc2C2CCC3(C)C(O)CCC3C12 (stereo not drawn) [CDB 4915, 7α-methyl estradiol] | 20.1 | 10.3 | 502 |  |  |  | EC50 [3]: 39 nM
2 | CC1CC2(C)C(O)CCC2C2C(C)Cc3cc(O)ccc3C12 (stereo not drawn) [CDB 4916, 7α, 11β-dimethyl estradiol] | 17.8 | 13.8 | 165 |  |  |  | EC50 [3]: 3.68 nM
3 | CC1CC2(C)C(O)CCC2C2CCc3cc(O)ccc3C12 (stereo not drawn) [CDB 4917, 11β-methyl estradiol] | 12.8 | 12 | 120 |  |  |  | 
4 | C[C@@H]1CC2=CC(=O)CC[C@@H]2[C@H]2CC[C@]3(C)[C@@H](O)CC[C@H]3[C@@H]21 [CDB-902, 7-α-methylnortestosterone, reference compound] |  |  |  |  |  |  | Parent molecule % remaining after 24 hours at 37° C. [5]: 100≤ %
5 | C[C@@H]1CC2=CC(=O)CCC2C2C1C1CC[C@H](OC(=O)CCCCCCCCCCC(=O)O[C@H]3CCC4C5C(C6CCC(=O)C=C6C[C@H]5C)[C@@H](C)C[C@@]43C)[C@@]1(C)C[C@@H]2C (stereo partly drawn) [CDB-4867] |  |  |  |  |  |  | AUC (Levator ani muscle) (castrated weanling rats): 5059 mg*week; AUC (Ventral Prostate) (castrated weanling rats): 529.5 mg*week; duration of levator ani muscle weight increase (anabolic effects) (castrated weanling rats): sustained until Day 99 (Week 14); duration of ventral prostate weight increase (androgenic effects) (castrated weanling rats): sustained until Day 99 (Week 14); ventral prostate gland weights relative to vehicle (castrated weanling rats): increased; Parent molecule % remaining after 24 hours at 37° C. ([5]; male): 100≤ %
6 | CC1CC2(C)C(O)CCC2C2CCC3=CC(=O)CCC3=C12 (stereo not drawn) [CDB-4890, 11β, 4,9 diene-MNT] | 15.5 | 6680 | 43.5 |  |  |  | 
7 | C[C@@H]1CC2=CC(=O)CC[C@]2(C)C2CC[C@@]3(C)C(CC[C@@H]3O)C21 (stereo partly drawn) [CDB-4910, 7α-methyl testosterone] |  |  |  | 57.6 | 20.2 | 0.1 | Ventral Prostate (weight in gram) ([6]; Conc. in mmole 0.7): 0.076 gram; Ventral Prostate (weight in gram) ([6]; Conc. in mmole 2.8): 0.13 gram; Ventral Prostate (weight in gram) ([6]; Conc. in mmole 11.2): 0.14 gram; IC50 [2]: 7830 nM; IC50 ([4]; IC50 (nM) PR binding): 395 nM
8 | C[C@@H]1CC2CC(=O)CC[C@]2(C)C2CC[C@@]3(C)C(CC[C@@H]3O)C21 (stereo partly drawn) [CDB-4922, 7α-methyldihydro testosterone] | 57.1 |  |  | 66.8 | 38.0 | 10.1 | IC50 [2]: 26300 nM; IC50 ([4]; IC50 (nM) PR binding): 1890 nM
9 | C[C@]12CC[C@H]3[C@@H](CCC4=CC(=O)CC[C@@]43C)[C@@H]1CC[C@@H]2O [Testosterone, reference compound] |  |  |  | 31.4 | 0.1 | 0.1 | Ventral Prostate (weight in gram) ([6]; Conc. in mmole 6.9): 0.12 gram
